The values below are quoted from earlier work in patent US20040229855A1, “Antiglucocorticoids for the treatment of postpartum psychosis” (Corcept Therapeutics, Inc., priority 2003, published 2004).

In series [1] the target is T1, glucocorticoid receptor (Homo sapiens, UniProt P04150).
T1 sequence (P04150 1-777): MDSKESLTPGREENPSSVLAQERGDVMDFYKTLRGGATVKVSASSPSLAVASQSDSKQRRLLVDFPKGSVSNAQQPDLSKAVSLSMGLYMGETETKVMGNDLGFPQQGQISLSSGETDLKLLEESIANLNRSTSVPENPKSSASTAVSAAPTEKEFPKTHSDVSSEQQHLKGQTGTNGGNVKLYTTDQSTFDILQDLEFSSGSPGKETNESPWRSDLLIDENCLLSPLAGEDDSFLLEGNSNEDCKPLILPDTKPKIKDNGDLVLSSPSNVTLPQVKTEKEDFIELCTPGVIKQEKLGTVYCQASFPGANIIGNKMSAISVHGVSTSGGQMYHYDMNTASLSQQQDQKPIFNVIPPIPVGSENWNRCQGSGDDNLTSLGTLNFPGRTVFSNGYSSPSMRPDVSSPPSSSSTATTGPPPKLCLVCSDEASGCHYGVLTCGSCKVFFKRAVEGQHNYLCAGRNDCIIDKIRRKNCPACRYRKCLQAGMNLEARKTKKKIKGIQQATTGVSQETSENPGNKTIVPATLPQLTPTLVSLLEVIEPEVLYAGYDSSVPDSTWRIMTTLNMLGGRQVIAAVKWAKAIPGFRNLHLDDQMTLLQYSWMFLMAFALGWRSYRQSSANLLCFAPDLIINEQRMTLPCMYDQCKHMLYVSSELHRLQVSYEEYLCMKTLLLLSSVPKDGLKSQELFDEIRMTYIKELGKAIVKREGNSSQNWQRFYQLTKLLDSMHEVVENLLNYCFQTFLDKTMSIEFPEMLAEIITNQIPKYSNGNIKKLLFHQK
The settings on record: cited from earlier work.

For series [2] the following is noted: in one study (Kawai 1989); cited from earlier work.
Series [3] has as its target T2, progesterone receptor (Homo sapiens, UniProt P06401).
T2 sequence (P06401 1-933): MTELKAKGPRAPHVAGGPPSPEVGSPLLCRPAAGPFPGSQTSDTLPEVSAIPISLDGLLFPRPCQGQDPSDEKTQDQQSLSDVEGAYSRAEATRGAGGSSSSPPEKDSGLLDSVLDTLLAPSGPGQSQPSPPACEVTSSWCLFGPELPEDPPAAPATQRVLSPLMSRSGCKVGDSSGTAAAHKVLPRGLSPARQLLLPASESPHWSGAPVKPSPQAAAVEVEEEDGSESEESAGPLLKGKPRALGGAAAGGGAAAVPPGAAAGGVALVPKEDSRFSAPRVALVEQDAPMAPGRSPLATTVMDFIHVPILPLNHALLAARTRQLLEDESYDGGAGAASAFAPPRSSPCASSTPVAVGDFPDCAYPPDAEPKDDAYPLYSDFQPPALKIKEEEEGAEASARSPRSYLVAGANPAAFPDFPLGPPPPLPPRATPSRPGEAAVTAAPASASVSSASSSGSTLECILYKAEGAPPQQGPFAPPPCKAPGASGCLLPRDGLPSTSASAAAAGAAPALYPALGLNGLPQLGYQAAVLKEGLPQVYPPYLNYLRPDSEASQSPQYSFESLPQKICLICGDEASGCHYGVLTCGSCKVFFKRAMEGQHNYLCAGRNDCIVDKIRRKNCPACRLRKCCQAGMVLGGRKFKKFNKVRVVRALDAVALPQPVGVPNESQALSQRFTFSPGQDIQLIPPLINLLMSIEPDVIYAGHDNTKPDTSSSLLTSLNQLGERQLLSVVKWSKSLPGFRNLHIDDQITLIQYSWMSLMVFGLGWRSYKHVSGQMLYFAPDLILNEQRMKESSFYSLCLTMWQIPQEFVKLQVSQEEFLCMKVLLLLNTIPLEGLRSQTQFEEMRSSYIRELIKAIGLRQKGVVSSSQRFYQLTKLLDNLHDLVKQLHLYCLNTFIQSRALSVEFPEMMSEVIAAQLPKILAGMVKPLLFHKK
The settings on record: cited from earlier work.

As to `CC#C[C@]1(O)CC[C@H]2[C@@H]3CCC4=CC(=O)CCC4=C3[C@@H](c3ccc(OCCN(C)C)cc3)C[C@@]21C` [RU009, 11β-(4-dimethylaminoethoxyphenyl)-17α-propynyl-17β-hydroxy-4,9 estradien-3-one], the “glucocorticoid receptor antagonist activity” value in series [1] was “glucocorticoid receptor antagonist effects”.

Consider `CC#C[C@]1(O)CC[C@H]2[C@@H]3CCC4=CC(=O)CCC4=C3[C@@H](c3ccc(N(C)C)cc3)C[C@@]21C` [mifepristone, 17-β-hydroxy-11-β-(4-dimethyl-aminophenyl)-17-α-(1-propynyl)-estra-4,9-dien-3-one], for which, in series [1], the “glucocorticoid receptor antagonist activity” value is “powerful antagonist”. In addition, in series [2], the “daily dose excreted in the urine” value was “less than 0.5%”. The “progesterone receptor antagonist activity” value in series [3] is reported as “powerful antagonist”.
